≈ marks a conversion by molar mass, not a printed value.

The record followed here is PubChem BioAssay AID1996.

The conditions of the data set: buffer; pH 7.4; 200.0 µM.
Take `COc1ccc(CNCCC2(C(C)C)CCOC(C)(C)C2)cc1` (stereo not drawn): the solubility (kinetic) was > 47.9 µg/mL.
`O=C(NCC(c1ccco1)N1CCCC1)c1cc(S(=O)(=O)N2CCCCC2)ccc1Cl` (stereo not drawn): the solubility (kinetic) was > 69.9 µg/mL.
Then `COc1ccc(C(=O)c2nc3ccccc3n2C(C)C)cc1OC`, with 46.1 µg/mL (≈ 142 µM); and `Cc1ccc(SCC(=O)N2CCN(c3ccccn3)CC2)cc1`, with 43.8 µg/mL (≈ 134 µM).
In turn, `C(=C\c1ccncc1)/c1ccccc1` had a kinetic solubility of 11.2 µg/mL (≈ 61.8 µM).
The result for `O=C(O)CCn1c(-c2ccccc2)cc2ccccc21` reads 35.7 µg/mL (≈ 135 µM).
Regarding `COCCNc1ncnc2c1cnn2Cc1ccccc1Cl`, the kinetic solubility was > 47.7 µg/mL.
`CS(=O)(=O)N1CCC(C(=O)NCc2ccc3c(c2)OCO3)CC1`: the kinetic solubility was > 51.1 µg/mL.
Then `Oc1c(Cl)cc(Cl)cc1CNc1nc2ccccc2[nH]1`, with 3.5 µg/mL (≈ 11.4 µM); and `CNC(=O)c1cccc2cccc(Sc3ccccc3C(=O)O)c12`, with 44.2 µg/mL (≈ 131 µM).
For the compound `O=C(N/C(=C/c1ccc(F)cc1)C(=O)N1CCCCC1)c1ccco1`, the kinetic solubility was > 51.4 µg/mL.
For the compound `O/N=C1\CCCc2ccc3ccccc3c21`, the solubility (kinetic) is 4.5 µg/mL (≈ 21.3 µM).
The result for `CCN(CC)c1ccc(/C=C(/C#N)C(=O)NC(C)C)o1` reads 38.6 µg/mL (≈ 140 µM).
Regarding `COc1ccc(C(=O)N/N=C/c2cccnc2)cc1`, the solubility (kinetic) is > 38.3 µg/mL.
Then `Cc1ccc(Cl)c(NC(=O)CSc2cccc[n+]2[O-])c1Cl`, with > 51.5 µg/mL; and `Cc1ccc2c(c1)N(CC(=O)N1CCC(O)CC1)C(=O)CO2`, with > 45.7 µg/mL; and `O=C(C1CC(=O)N(c2ccc(F)cc2)C1)N1CCOCC1` (stereo not drawn), with 41.5 µg/mL (≈ 142 µM).
The result for `O=C(/C=C/c1cccc([N+](=O)[O-])c1)N1CCN(Cc2ccccc2)CC1` reads 50.9 µg/mL (≈ 145 µM).
Then `O=c1[nH]c(=S)n(Cc2ccc(F)cc2)c(O)c1C=NCc1ccc2c(c1)OCO2`, with 0.4 µg/mL (≈ 0.968 µM); and `O=c1cc(C(O)C[N+](=O)[O-])occ1OCc1ccccc1` (stereo not drawn), with 41.6 µg/mL (≈ 143 µM); and `COC(=O)c1cc(-c2ccc(OC)cc2)on1`, with 9.7 µg/mL (≈ 41.6 µM).
As for `O=C(NN=C1CCCCCC1)c1ccncc1`, the solubility (kinetic) was > 34.7 µg/mL.
`COc1ccc(CCN=C(C)c2cc(C)c(C)cc2O)cc1OC`: the solubility (kinetic) is > 49.1 µg/mL.
As for `NC(=O)CN1C(=O)C(=O)N(Cc2ccccc2)C1=O`, the solubility (kinetic) turned out to be 38.7 µg/mL (≈ 148 µM).
For `O=C(NCC1CC1)Nc1cccc(Cl)c1`, the solubility (kinetic) was > 33.7 µg/mL.
Consider `C=CCn1cnc2c(oc3ccccc32)c1=O`, for which the kinetic solubility was > 33.9 µg/mL.
The result for `CC1CN=C(NC(=O)c2cccc([N+](=O)[O-])c2)S1.Cl` (stereo not drawn) reads 12.5 µg/mL.
Then `COc1ccc(NC(=O)N2CCc3ccccc3C2)c(OC)c1`, with 42.3 µg/mL (≈ 135 µM).
Then `Cn1c(N)c(C(=O)COC(=O)Cc2ccc(Br)cc2)c(=O)n(C)c1=O`, with 0.7 µg/mL (≈ 1.71 µM).
Take `O=C(CN1CCN(c2ccccc2)CC1)Nc1scc2c1c(=O)oc1ccccc12`: the kinetic solubility is < 0.3 µg/mL.
`O=[N+]([O-])c1cccc(CN2CCN(c3cccc4[nH]ccc34)CC2)c1` showed a kinetic solubility of 44 µg/mL (≈ 131 µM).
Then `CC(C)NC(=O)c1c(O)c2cccc3c2n(c1=O)CCC3`, with < 0.3 µg/mL.
Then `COc1cccc(CNC(=O)CC2Sc3ccccc3NC2=O)c1` (stereo not drawn), with 1.5 µg/mL (≈ 4.38 µM).
`O=C(C1CCC1)N1CCN(c2ccc(Cl)cc2)CC1`: the kinetic solubility came out at 36.4 µg/mL (≈ 131 µM).
In the case of `COc1cc2nc(CN3CCN(S(=O)(=O)c4ccccc4C(F)(F)F)CC3)[nH]c(=O)c2cc1OC`, the kinetic solubility came out at 12.4 µg/mL (≈ 24.2 µM).
The result for `CC(=O)c1cccc(NC(=O)COC(=O)CCC(=O)c2ccc(F)cc2)c1` reads 53.9 µg/mL (≈ 145 µM); that for `CCc1ccccc1NC(=O)CNC(=O)c1ccc(OCc2cn3ccccc3n2)cc1`, 7.6 µg/mL (≈ 17.7 µM).
On to `Cc1nc(C(F)(F)F)ccc1C(=O)Nc1ccccc1F`, for which the solubility (kinetic) is > 44.7 µg/mL.
Then `CCOP(=O)(OCC)C(Nc1ccccc1)c1cccnc1` (stereo not drawn), with > 48 µg/mL.
The result for `CC(=O)c1ccc(N2CCN(C(=O)c3ccc(S(=O)(=O)NCc4ccco4)cc3)CC2)cc1` reads 4.9 µg/mL (≈ 10.5 µM).
On to `O=C(NCCN1CCOCC1)c1ccc(Cl)cc1O`, for which the solubility (kinetic) is > 42.7 µg/mL.
As to `Cc1ccc(NC(=O)CN2C(=O)N/C(=C\c3cccnc3)C2=O)cc1`, the kinetic solubility was determined as 5.2 µg/mL (≈ 15.5 µM).
The result for `COc1ccc(CCC(=O)Nc2ccc3c(c2)OCO3)cc1` reads 7.3 µg/mL (≈ 24.4 µM); that for `C(=Nc1cccc2c(N=Cc3ccco3)cccc12)c1ccco1`, 46.7 µg/mL (≈ 149 µM).
`O=C(Cc1cccc2ccccc12)Nc1cccnc1` showed a solubility (kinetic) of 39 µg/mL (≈ 149 µM).
The result for `O=S(=O)(NCCCCNS(=O)(=O)c1ccc(F)cc1)c1ccc(F)cc1` reads 0.7 µg/mL (≈ 1.73 µM).
The result for `O=C(c1ccccc1)c1ccccc1NC(=O)C1CCCN1Cc1ccccc1` (stereo not drawn) reads 2.6 µg/mL (≈ 6.76 µM); that for `CC(=O)c1cc(C)ccc1OC(=O)c1ccncc1`, 35.8 µg/mL (≈ 140 µM).
The result for `COc1ccccc1NC(=O)COC(=O)c1oc2ccccc2c1C` reads 6 µg/mL (≈ 17.7 µM); that for `COc1ccc(Cl)cc1NC(=O)COC(=O)C1CC(=O)N(Cc2ccccc2)C1` (stereo not drawn), 57.4 µg/mL (≈ 138 µM); that for `CNC(=S)N1CCC(c2nc3ccccc3s2)CC1`, > 43.7 µg/mL.
With `O=C(NC1CCCC(C(F)(F)F)C1)c1ccc([N+](=O)[O-])o1` (stereo not drawn), the solubility (kinetic) was > 45.9 µg/mL.
The result for `Cc1cccc(NC(=S)NCc2ccc(F)cc2)c1C` reads 35.2 µg/mL (≈ 122 µM).
The result for `NC(=O)C1(N2CCCCC2)CCN(Cc2nc(-c3cccs3)no2)CC1` reads > 56.3 µg/mL.
The result for `O=C(O)c1ccccc1CSc1ncccc1C(=O)O` reads > 43.4 µg/mL.
Turning to `CCOC(=O)CC(NC(=O)c1ccccc1)c1ccc(OC)cc1` (stereo not drawn), the kinetic solubility turned out to be 36.4 µg/mL (≈ 111 µM).
The result for `CCOC(=O)c1cnc(SC)nc1NCCOC` reads > 40.7 µg/mL; that for `OCCC1CN(Cc2ccc3c(c2)CCO3)CCN1C1CCCC1` (stereo not drawn), 45.2 µg/mL (≈ 137 µM).
Regarding `O=C(/C=C/c1ccc(F)cc1)N1CC[C@@]2(O)CCCC[C@H]2C1`, the solubility (kinetic) is > 45.5 µg/mL.
The result for `CC(=O)c1cccc(NC(=O)CN2C(=O)NC(C)(C)C2=O)c1` reads > 45.5 µg/mL; that for `CCOC(=O)c1cc(-c2csc(-c3cccc(Cl)c3)n2)on1`, < 0.4 µg/mL.
In the case of `COc1ccc(N2C(=O)CC(N3CCCCC3)C2=O)cc1` (stereo not drawn), the solubility (kinetic) is > 43.3 µg/mL.
Compound `Cc1ccc(C(=O)N2CC(=O)NC(=O)C2)cc1` displayed a kinetic solubility of 29.6 µg/mL (≈ 127 µM).
Then `O=C(c1cc2cc(F)ccc2[nH]1)N1CCc2ccccc2C1`, with 0.9 µg/mL (≈ 3.06 µM); and `NC(=S)Nc1ccc(Cl)c(Cl)c1`, with > 33.2 µg/mL.
For `Cc1ccc(Cn2c(=O)oc3ccccc32)cc1`, the solubility (kinetic) worked out at 1 µg/mL (≈ 4.18 µM).
Then `S=c1nccc(-c2ccc3c(c2)CCO3)[nH]1`, with 14.8 µg/mL (≈ 64.3 µM).
Take `Cc1ccc(NC2CCCN(C(=O)c3cccnc3)C2)cc1C` (stereo not drawn): the kinetic solubility is > 46.4 µg/mL.
`CC(OC(=O)C1=COCCO1)C(=O)NC1(C#N)CCCCC1` (stereo not drawn) displayed a solubility (kinetic) of 45.7 µg/mL (≈ 148 µM).
Regarding `CN1CCC(N(C)C(=O)c2cc(-c3ccc(F)cc3)nc3ccccc23)CC1.Cl`, the kinetic solubility was > 62.1 µg/mL.
The result for `C=CCOC(=O)c1ccc(N2CCN(c3ccccc3)CC2)nc1` reads 0.9 µg/mL (≈ 2.78 µM); that for `O=C(Nc1ccccc1F)C(c1ccccc1)c1ccccc1`, < 0.7 µg/mL; that for `CCOC(=O)C1CCN(C(=O)COC(=O)c2ccccc2OCC)CC1`, > 54.5 µg/mL.
Regarding `Cc1cc(=O)oc(C)c1C(=O)Nc1cccnc1Cl`, the solubility (kinetic) was > 41.8 µg/mL.
Then `COc1ccc(NC(=O)CS(=O)c2cccc(Cl)c2)cc1` (stereo not drawn), with > 48.6 µg/mL; and `CSc1ccc(Cl)c(C(=O)NCCCn2ccnc2)c1`, with > 46.5 µg/mL.
`CCC1(CC)NC(=O)N(CC(=O)N2CCc3ccccc32)C1=O` had a solubility (kinetic) of 45.8 µg/mL (≈ 145 µM).
As to `COc1ccccc1CCNS(=O)(=O)c1cn(C)c(=O)n(C)c1=O`, the kinetic solubility is > 53 µg/mL.
Regarding `O=C(COC(=O)c1ccc(Cl)nc1)Nc1cc(S(=O)(=O)N2CCOCC2)ccc1Cl`, the kinetic solubility amounted to 50.6 µg/mL (≈ 107 µM).
Then `O=C(NCCc1ccccc1)C1CCN(C(=O)c2ccc(F)cc2)CC1`, with 47.4 µg/mL (≈ 134 µM).
On to `CCOC(=O)C1CCN(Cc2cccc(Oc3ccccc3)c2)CC1`, for which the solubility (kinetic) is 17 µg/mL (≈ 50.1 µM).
Then `CC(C)CNC(=O)CN1C(=O)NC2(CCc3ccccc32)C1=O` (stereo not drawn), with > 47.3 µg/mL; and `Cc1nc(C)c(-c2csc(Nc3ccc(F)cc3)n2)s1`, with 1.8 µg/mL (≈ 5.89 µM); and `Cn1cccc1C(=O)OCC(=O)N1c2ccccc2NC(=O)C1(C)C`, with 12.7 µg/mL (≈ 37.2 µM).
For the compound `O=C(NCC(=O)N1CCCCCCC1)c1ccco1`, the solubility (kinetic) is > 39.6 µg/mL.
The result for `CCOC(=O)c1cc2c(ccn2C)n1CC(=O)Nc1ccc(F)cc1` reads 3.1 µg/mL (≈ 9.03 µM); that for `COc1cccc(NC(=O)CCN2CCOCC2)c1.Cl`, > 45.1 µg/mL; that for `Cc1ccc2oc(C(=O)NC3CCS(=O)(=O)C3)c(C)c2c1` (stereo not drawn), 27.5 µg/mL (≈ 89.5 µM).
Then `Cc1noc2ncnc(N3CCCCC3)c12`, with 27.8 µg/mL (≈ 127 µM); and `CC(C)c1ccc(C(N)=S)cc1`, with 25.3 µg/mL (≈ 141 µM).
Then `O=c1cc(-c2ccncc2)oc2c1ccc1ccccc12`, with 0.7 µg/mL (≈ 2.56 µM); and `CCC(C)[C@H](NC(=O)Nc1ccc(S(N)(=O)=O)cc1)C(=O)OC` (stereo partly drawn), with > 51.5 µg/mL; and `Cc1cccc(OCC(=O)Nc2nccs2)c1C`, with 5.1 µg/mL (≈ 19.4 µM).
Compound `O=C(CNCc1ccccc1Cl)Nc1cc(S(=O)(=O)N2CCOCC2)ccc1Cl` gave a kinetic solubility of 14.5 µg/mL (≈ 31.6 µM).
In the case of `Cc1cc(C)c2c(ccc3cccc[n+]32)c1.[O-][Cl+3]([O-])([O-])[O-]`, the solubility (kinetic) is > 46.2 µg/mL.
Then `Cc1cccc(OCc2nc(C#N)c(N3CCCC3)o2)c1`, with 9.6 µg/mL (≈ 33.9 µM); and `N#CC(C#N)=Cc1cnc(N2CCN(c3ccccc3)CC2)s1`, with < 0.1 µg/mL.
Then `COc1ccc2cc(C(=O)N3CCN(c4ccccc4F)CC3)[nH]c2c1`, with 1.9 µg/mL (≈ 5.38 µM); and `Cc1cc(C(=O)NC2CCCCC2)on1`, with > 31.2 µg/mL; and `COc1ccccc1N1CCN(C(=O)c2cccs2)CC1`, with > 45.4 µg/mL.
Regarding `Cc1ccnc(SC2CC(=O)N(c3ccc(Br)cc3)C2=O)n1` (stereo not drawn), the kinetic solubility came to 44.1 µg/mL (≈ 117 µM).
For the compound `Cc1cc(C)nc(/N=C(\N)Nc2ccc(C(C)C)cc2)n1`, the solubility (kinetic) is > 42.5 µg/mL.
The result for `Cc1ccc(C(=O)NCCNC(=O)c2ccccc2)cc1` reads > 42.4 µg/mL.

A word on the solubility (kinetic): it is solubility judged after dilution from a stock solution rather than from solid.
